Assay results from publication PMC5218480 (PLoS ONE, 2017).

Test system: MV-4-11 cells
Assay: Gene expression microarray analysis (Affymetrix PrimeView) and GSEA
Type: cell-based, human
Design: RFU PODN (11730768_x_at) / Fold change /veh PODN (11730768_x_at) / RFU LINC00158 (11744669_a_at) / Fold change /veh LINC00158 (11744669_a_at) / RFU DUSP10 (11751237_a_at) / Fold change /veh DUSP10 (11751237_a_at) / RFU ID3 (11757404_x_at) / Fold change /veh ID3 (11757404_x_at) / RFU PLEKHG5 (11737974_s_at) / Fold change /veh PLEKHG5 (11737974_s_at) / RFU LRRC4B (11730491_at) / Fold change /veh LRRC4B (11730491_at) / RFU GIMAP4 (11747438_a_at) / Fold change /veh GIMAP4 (11747438_a_at) / RFU KRT8 (11758183_x_at) / Fold change /veh KRT8 (11758183_x_at) / RFU CNN1 (11734310_a_at) / Fold change /veh CNN1 (11734310_a_at) / RFU VPS37D (11726825_at) / Fold change /veh VPS37D (11726825_at) / RFU C10orf10 (11716522_x_at) / Fold change /veh C10orf10 (11716522_x_at) / RFU KIR2DL2 /// KIR2DL4 /// KIR2DL5A /// KIR2DL5B /// KIR2DS1 /// KIR2DS2 /// KIR2DS3 /// KIR2DS4 /// KIR3DL3 /// KIR3DL3 /// KIR3DS1 (11738374_at) / Fold change /veh KIR2DL2 /// KIR2DL4 /// KIR2DL5A /// KIR2DL5B /// KIR2DS1 /// KIR2DS2 /// KIR2DS3 /// KIR2DS4 /// KIR3DL3 /// KIR3DL3 /// KIR3DS1 (11738374_at) / RFU C1QL1 (11718748_at) / Fold change /veh C1QL1 (11718748_at) / RFU TMPRSS4 (11747572_a_at) / Fold change /veh TMPRSS4 (11747572_a_at) / RFU HAMP (11756126_x_at) / Fold change /veh HAMP (11756126_x_at) / RFU RNFT2 (11725882_a_at) / Fold change /veh RNFT2 (11725882_a_at) / RFU NR4A2 (11747474_a_at) / Fold change /veh NR4A2 (11747474_a_at) / RFU ABCC12 (11746883_a_at) / Fold change /veh ABCC12 (11746883_a_at) / RFU TMEM136 (11760407_x_at) / Fold change /veh TMEM136 (11760407_x_at) / RFU CLDN22 /// WWC2 (11732394_at) / Fold change /veh CLDN22 /// WWC2 (11732394_at) / RFU HLA-DPB1 (11760878_x_at) / Fold change /veh HLA-DPB1 (11760878_x_at) / RFU SPINT1 (11716480_a_at) / Fold change /veh SPINT1 (11716480_a_at) / RFU GAP43 (11754022_s_at) / Fold change /veh GAP43 (11754022_s_at) / RFU A4GNT (11735810_at) / Fold change /veh A4GNT (11735810_at) / RFU PRB3 (11715151_x_at) / Fold change /veh PRB3 (11715151_x_at) / RFU TUBB4B (11761932_at) / Fold change /veh TUBB4B (11761932_at) / RFU CAPN14 (11732068_a_at) / Fold change /veh CAPN14 (11732068_a_at) / RFU TMCC2 (11721928_a_at) / Fold change /veh TMCC2 (11721928_a_at) / RFU IRGQ (11745062_a_at) / Fold change /veh IRGQ (11745062_a_at) / RFU FAM174B (11720279_a_at) / Fold change /veh FAM174B (11720279_a_at) / RFU TMPRSS4 (11748680_a_at) / Fold change /veh TMPRSS4 (11748680_a_at) / RFU FAM212B (11763350_a_at) / Fold change /veh FAM212B (11763350_a_at) / RFU PLEKHG5 (11743358_a_at) / Fold change /veh PLEKHG5 (11743358_a_at) / RFU ZSCAN30 (11745921_a_at) / Fold change /veh ZSCAN30 (11745921_a_at) / RFU CMKLR1 (11741424_a_at) / Fold change /veh CMKLR1 (11741424_a_at) / RFU LOC101060620 /// MAPK8IP1 (11723275_at) / Fold change /veh LOC101060620 /// MAPK8IP1 (11723275_at) / RFU SPTSSB (11747773_x_at) / Fold change /veh SPTSSB (11747773_x_at) / RFU PRSS12 (11739890_at) / Fold change /veh PRSS12 (11739890_at) / RFU BIN1 (11741810_x_at) / Fold change /veh BIN1 (11741810_x_at) / RFU WNT11 (11732464_a_at) / Fold change /veh WNT11 (11732464_a_at) / RFU C10orf10 (11716521_a_at) / Fold change /veh C10orf10 (11716521_a_at) / RFU C5orf56 (11738089_at) / Fold change /veh C5orf56 (11738089_at) / RFU CYB561 (11721691_x_at) / Fold change /veh CYB561 (11721691_x_at) / RFU ANKRD19P (11752326_a_at) / Fold change /veh ANKRD19P (11752326_a_at) / RFU OR2T12 /// OR2T33 /// OR2T8 (11738714_s_at) / Fold change /veh OR2T12 /// OR2T33 /// OR2T8 (11738714_s_at) / RFU VCAN (11748164_a_at) / Fold change /veh VCAN (11748164_a_at) / RFU JSRP1 (11732532_at) / Fold change /veh JSRP1 (11732532_at) / RFU KRTAP10-11 (11738290_x_at) / Fold change /veh KRTAP10-11 (11738290_x_at) / RFU MYO3A (11730013_a_at) / Fold change /veh MYO3A (11730013_a_at) / RFU EBF3 (11725865_a_at) / Fold change /veh EBF3 (11725865_a_at) / RFU CAMK2N1 (11719241_x_at) / Fold change /veh CAMK2N1 (11719241_x_at) / RFU C5orf56 (11738088_a_at) / Fold change /veh C5orf56 (11738088_a_at) / RFU OLFML3 (11715873_a_at) / Fold change /veh OLFML3 (11715873_a_at) / RFU LOC100653217 /// NTM (11731650_a_at) / Fold change /veh LOC100653217 /// NTM (11731650_a_at) / RFU MAPK11 (11762145_a_at) / Fold change /veh MAPK11 (11762145_a_at) / RFU FIZ1 (11724087_x_at) / Fold change /veh FIZ1 (11724087_x_at) / RFU OASL (11726364_x_at) / Fold change /veh OASL (11726364_x_at) / RFU SOX15 (11748057_x_at) / Fold change /veh SOX15 (11748057_x_at) / RFU CD79A (11719716_a_at) / Fold change /veh CD79A (11719716_a_at) / RFU HIST1H1D (11736915_at) / Fold change /veh HIST1H1D (11736915_at) / RFU CASKIN2 (11723855_a_at) / Fold change /veh CASKIN2 (11723855_a_at) / RFU LOC730098 (11760151_x_at) / Fold change /veh LOC730098 (11760151_x_at) / RFU OR4N2 (11742367_at) / Fold change /veh OR4N2 (11742367_at) / RFU PRRT2 (11749266_a_at) / Fold change /veh PRRT2 (11749266_a_at) / RFU SNX32 (11753110_a_at) / Fold change /veh SNX32 (11753110_a_at) / RFU CDHR5 (11726645_a_at) / Fold change /veh CDHR5 (11726645_a_at) / RFU RCAN1 (11760418_a_at) / Fold change /veh RCAN1 (11760418_a_at) / RFU FAM167A (11723789_a_at) / Fold change /veh FAM167A (11723789_a_at) / RFU FAM26E (11764081_at) / Fold change /veh FAM26E (11764081_at) / RFU ISYNA1 (11749810_s_at) / Fold change /veh ISYNA1 (11749810_s_at) / RFU ACY1 (11761880_at) / Fold change /veh ACY1 (11761880_at) / RFU 11764098_at / Fold change /veh 11764098_at / RFU SAMD14 (11745864_x_at) / Fold change /veh SAMD14 (11745864_x_at) / RFU NPB (11741838_a_at) / Fold change /veh NPB (11741838_a_at) / RFU TMPRSS6 (11731388_a_at) / Fold change /veh TMPRSS6 (11731388_a_at) / RFU KRTAP10-2 (11738614_at) / Fold change /veh KRTAP10-2 (11738614_at) / RFU ARHGAP8 /// PRR5-ARHGAP8 (11727945_x_at) / Fold change /veh ARHGAP8 /// PRR5-ARHGAP8 (11727945_x_at) / RFU KRTAP5-7 /// NADSYN1 (11734609_at) / Fold change /veh KRTAP5-7 /// NADSYN1 (11734609_at) / RFU RASL12 (11751679_a_at) / Fold change /veh RASL12 (11751679_a_at) / RFU CDKN2B (11736163_a_at) / Fold change /veh CDKN2B (11736163_a_at) / RFU PRF1 (11729649_at) / Fold change /veh PRF1 (11729649_at) / RFU, ZNF638 /// ZNF638-IT1 / Fold change vs veh, ZNF638 /// ZNF638-IT1 / RFU, PANK3 / Fold change vs veh, PANK3 / RFU, SH3YL1 / Fold change vs veh, SH3YL1 / RFU, ZEB2 / Fold change vs veh, ZEB2 / RFU, NRIP1 / Fold change vs veh, NRIP1 / RFU, PTTG1IP / Fold change vs veh, PTTG1IP / RFU, CAPN2 / Fold change vs veh, CAPN2 / RFU, MED14 / Fold change vs veh, MED14 / RFU, SNORA58 / Fold change vs veh, SNORA58 / RFU, C1orf63 / Fold change vs veh, C1orf63 / RFU, LRRFIP1 / Fold change vs veh, LRRFIP1 / RFU, NDUFAF7 / Fold change vs veh, NDUFAF7 / RFU, SLC12A2 / Fold change vs veh, SLC12A2 / RFU, IBTK / Fold change vs veh, IBTK / RFU, ESF1 / Fold change vs veh, ESF1 / Fold change vs veh, TMEM50B / RFU, TAOK1 / Fold change vs veh, TAOK1 / RFU, ACBD3 / Fold change vs veh, ACBD3 / RFU, TMA16 / Fold change vs veh, TMA16 / RFU, RWDD3 / Fold change vs veh, RWDD3 / RFU, BCAT1 / Fold change vs veh, BCAT1 / RFU, EDEM3 / Fold change vs veh, EDEM3 / RFU, TMEM33 / Fold change vs veh, TMEM33 / RFU, WDR75 / Fold change vs veh, WDR75 / RFU, AHCTF1 / Fold change vs veh, AHCTF1 / RFU, TFRC / Fold change vs veh, TFRC / RFU, ZDHHC17 / Fold change vs veh, ZDHHC17 / RFU, NOM1 / Fold change vs veh, NOM1 / RFU, ARL8B / Fold change vs veh, ARL8B / RFU, ZBTB11 / Fold change vs veh, ZBTB11 / RFU, TAMM41 / Fold change vs veh, TAMM41 / RFU, KIAA1704 /// LOC100996395 / Fold change vs veh, KIAA1704 /// LOC100996395 / RFU, ING1 / Fold change vs veh, ING1 / RFU, TRMT61B / Fold change vs veh, TRMT61B / RFU, FUBP3 / Fold change vs veh, FUBP3 / RFU, TP53 / Fold change vs veh, TP53 / RFU, TNKS2 / Fold change vs veh, TNKS2 / RFU, ZFP14 / Fold change vs veh, ZFP14 / RFU, ACTR2 / Fold change vs veh, ACTR2 / RFU, PPP3R1 / Fold change vs veh, PPP3R1 / RFU, PIK3R1 / Fold change vs veh, PIK3R1 / RFU, HNRNPA1 / Fold change vs veh, HNRNPA1 / RFU, RNF170 / Fold change vs veh, RNF170 / RFU, ZNF28 / Fold change vs veh, ZNF28 / RFU, RNGTT / Fold change vs veh, RNGTT / RFU, OGT / Fold change vs veh, OGT / RFU, BRD1 / Fold change vs veh, BRD1 / RFU, MARS / Fold change vs veh, MARS / RFU, ZNF655 / Fold change vs veh, ZNF655 / RFU, FAHD1 / Fold change vs veh, FAHD1 / RFU, BDP1 / Fold change vs veh, BDP1 / RFU, LRRCC1 / Fold change vs veh, LRRCC1 / RFU, ARID1A / Fold change vs veh, ARID1A / RFU, ZNF146 / Fold change vs veh, ZNF146 / RFU, ZNF330 / Fold change vs veh, ZNF330 / RFU, GPN3 / Fold change vs veh, GPN3 / RFU, C9orf123 / Fold change vs veh, C9orf123 / RFU, N4BP2L2 / Fold change vs veh, N4BP2L2 / RFU, ARFIP1 / Fold change vs veh, ARFIP1 / RFU, FAM179B / Fold change vs veh, FAM179B / RFU, BCL10 / Fold change vs veh, BCL10 / RFU, UHRF1BP1L / Fold change vs veh, UHRF1BP1L / RFU, BET1 / Fold change vs veh, BET1 / RFU, CNOT2 / Fold change vs veh, CNOT2 / RFU, ZNF268 / Fold change vs veh, ZNF268 / Fold change vs veh, ZNF507 / RFU, DGCR2 / Fold change vs veh, DGCR2 / RFU, WDSUB1 / Fold change vs veh, WDSUB1 / Fold change vs veh, HSP90B1 /// MIR3652 / RFU, ADSS / Fold change vs veh, ADSS / RFU, GK / Fold change vs veh, GK / RFU, ZNF148 / Fold change vs veh, ZNF148 / RFU, TAF9 / Fold change vs veh, TAF9 / RFU, SLC1A5 / Fold change vs veh, SLC1A5 / RFU, SLMO2 / Fold change vs veh, SLMO2 / RFU, ABCC4 / Fold change vs veh, ABCC4 / RFU, LOC101060439 /// RAP1B / Fold change vs veh, LOC101060439 /// RAP1B / RFU, RFX7 / Fold change vs veh, RFX7 / RFU, GTPBP10 / Fold change vs veh, GTPBP10 / RFU, CNEP1R1 / Fold change vs veh, CNEP1R1 / RFU, BIVM-ERCC5 /// ERCC5 / Fold change vs veh, BIVM-ERCC5 /// ERCC5 / RFU, ILF3 / Fold change vs veh, ILF3 / RFU 11762660_at / Fold change /veh 11762660_at / RFU VCAN (11757783_s_at) / Fold change /veh VCAN (11757783_s_at) / RFU DDX43 (11728927_at) / Fold change /veh DDX43 (11728927_at) / RFU KRT8 (11758188_x_at) / Fold change /veh KRT8 (11758188_x_at) / RFU NKD1 (11759106_at) / Fold change /veh NKD1 (11759106_at) / RFU SRD5A1 (11742802_a_at) / Fold change /veh SRD5A1 (11742802_a_at) / RFU TPSAB1 /// TPSB2 (11721975_s_at) / Fold change /veh TPSAB1 /// TPSB2 (11721975_s_at) / RFU GSTM3 (11746129_a_at) / Fold change /veh GSTM3 (11746129_a_at) / RFU IL23R (11737362_x_at) / Fold change /veh IL23R (11737362_x_at) / RFU TMEM51 (11727254_a_at) / Fold change /veh TMEM51 (11727254_a_at) / RFU PIWIL2 (11732686_x_at) / Fold change /veh PIWIL2 (11732686_x_at) / RFU ORM1 (11744905_x_at) / Fold change /veh ORM1 (11744905_x_at) / RFU CCDC152 (11743942_at) / Fold change /veh CCDC152 (11743942_at) / RFU ECM1 (11717891_a_at) / Fold change /veh ECM1 (11717891_a_at) / RFU IL23R (11748794_a_at) / Fold change /veh IL23R (11748794_a_at) / RFU TNFAIP8L3 (11732012_x_at) / Fold change /veh TNFAIP8L3 (11732012_x_at) / RFU MBOAT4 (11741988_at) / Fold change /veh MBOAT4 (11741988_at) / RFU 11764193_at / Fold change /veh 11764193_at / RFU TMEM53 (11763286_at) / Fold change /veh TMEM53 (11763286_at) / RFU MAGEB2 (11727129_at) / Fold change /veh MAGEB2 (11727129_at) / RFU TMEM200A (11744735_a_at) / Fold change /veh TMEM200A (11744735_a_at) / RFU CCDC152 (11751479_a_at) / Fold change /veh CCDC152 (11751479_a_at) / RFU FAM211A (11726209_a_at) / Fold change /veh FAM211A (11726209_a_at) / RFU RGS16 (11746705_a_at) / Fold change /veh RGS16 (11746705_a_at) / RFU VCAN (11755009_s_at) / Fold change /veh VCAN (11755009_s_at) / RFU RHOB (11743442_s_at) / Fold change /veh RHOB (11743442_s_at) / RFU RGS16 (11720943_a_at) / Fold change /veh RGS16 (11720943_a_at) / RFU RGS16 (11720944_at) / Fold change /veh RGS16 (11720944_at) / RFU, VPS4B / Fold change vs veh, VPS4B / RFU, CREB1 / Fold change vs veh, CREB1 / RFU, DNAJC13 / Fold change vs veh, DNAJC13 / RFU, GNAQ / Fold change vs veh, GNAQ / RFU, CDK5R1 / Fold change vs veh, CDK5R1 / RFU, ZRANB3 / Fold change vs veh, ZRANB3 / RFU, CUL4A / Fold change vs veh, CUL4A / RFU, CCNY / Fold change vs veh, CCNY / RFU, UFL1 / Fold change vs veh, UFL1 / RFU, COG3 / Fold change vs veh, COG3 / RFU, DIAPH2 / Fold change vs veh, DIAPH2 / RFU, SKA2 / Fold change vs veh, SKA2 / RFU, AFF3 / Fold change vs veh, AFF3 / RFU, LMF1 / Fold change vs veh, LMF1 / RFU, IPO11 / Fold change vs veh, IPO11 / RFU, DFFB / Fold change vs veh, DFFB / RFU, FOXP1 / Fold change vs veh, FOXP1 / RFU, CARD8 / Fold change vs veh, CARD8 / RFU, STRN3 / Fold change vs veh, STRN3 / RFU, ADK / Fold change vs veh, ADK / RFU, RASSF2 / Fold change vs veh, RASSF2 / RFU, WIPF1 / Fold change vs veh, WIPF1 / RFU, LARP1B / Fold change vs veh, LARP1B / RFU, RASA1 / Fold change vs veh, RASA1 / RFU, RB1 / Fold change vs veh, RB1 / RFU, PPFIA1 / Fold change vs veh, PPFIA1 / RFU, MAT2A / Fold change vs veh, MAT2A / RFU, CCT5 / Fold change vs veh, CCT5 / RFU, WDR92 / Fold change vs veh, WDR92 / RFU, CUX1 / Fold change vs veh, CUX1 / RFU, TTC7A / Fold change vs veh, TTC7A / RFU, TMEM135 / Fold change vs veh, TMEM135 / RFU, DEPTOR / Fold change vs veh, DEPTOR / RFU, CPM / Fold change vs veh, CPM / RFU, DNAJB6 / Fold change vs veh, DNAJB6 / RFU, CACNA2D3 / Fold change vs veh, CACNA2D3 / RFU, DTX4 / Fold change vs veh, DTX4 / RFU, TFCP2 / Fold change vs veh, TFCP2 / RFU, GMCL1 /// GMCL1P1 / Fold change vs veh, GMCL1 /// GMCL1P1 / RFU, AEBP2 / Fold change vs veh, AEBP2 / RFU, SNHG1 /// SNORD22 /// SNORD25 /// SNORD26 /// SNORD27 /// SNORD28 /// SNORD29 /// SNORD31 / Fold change vs veh, SNHG1 /// SNORD22 /// SNORD25 /// SNORD26 /// SNORD27 /// SNORD28 /// SNORD29 /// SNORD31 / Fold change (Aza/veh), C12orf56 (ProbeSet 11735607_a_at) / Fold change (ACY-1035/veh), C12orf56 (ProbeSet 11735607_a_at) / Fold change (Aza/veh), FGFR1OP (ProbeSet 11751329_s_at) / Fold change (ACY-1035/veh), FGFR1OP (ProbeSet 11751329_s_at) / Fold change (Aza/veh), VPS36 (ProbeSet 11739960_a_at) / Fold change (ACY-1035/veh), VPS36 (ProbeSet 11739960_a_at) / RFU SYPL1 (11715823_x_at) / Fold change /veh SYPL1 (11715823_x_at) / RFU IGFBP7 (11715501_s_at) / Fold change /veh IGFBP7 (11715501_s_at) / RFU REEP3 (11722064_at) / Fold change /veh REEP3 (11722064_at) / RFU IGLL1 (11728026_x_at) / Fold change /veh IGLL1 (11728026_x_at): dose or concentration left out as unconfirmed
Details: ProbeSet 11741070_a_at; LIST B

Structure (SMILES): Nc1ncn([C@@H]2O[C@H](CO)[C@@H](O)[C@H]2O)c(=O)n1 [azacitidine]
- Fold change vs veh, ZNF146: 0.88
